This note sets out measurements from patent publication US11447466B2, “Substituted indole compounds useful as inhibitors of TLR7/8/9” (BRISTOL-MYERS SQUIBB COMPANY, priority 2017, dated 2022).

What all share (type): cell-based
For one experiment, the target named is T1, human TLR7 (Homo sapiens, UniProt Q9NYK1).
T1 construct: host or cells: HEK-Blue cells
T1 sequence (Q9NYK1 27-1049): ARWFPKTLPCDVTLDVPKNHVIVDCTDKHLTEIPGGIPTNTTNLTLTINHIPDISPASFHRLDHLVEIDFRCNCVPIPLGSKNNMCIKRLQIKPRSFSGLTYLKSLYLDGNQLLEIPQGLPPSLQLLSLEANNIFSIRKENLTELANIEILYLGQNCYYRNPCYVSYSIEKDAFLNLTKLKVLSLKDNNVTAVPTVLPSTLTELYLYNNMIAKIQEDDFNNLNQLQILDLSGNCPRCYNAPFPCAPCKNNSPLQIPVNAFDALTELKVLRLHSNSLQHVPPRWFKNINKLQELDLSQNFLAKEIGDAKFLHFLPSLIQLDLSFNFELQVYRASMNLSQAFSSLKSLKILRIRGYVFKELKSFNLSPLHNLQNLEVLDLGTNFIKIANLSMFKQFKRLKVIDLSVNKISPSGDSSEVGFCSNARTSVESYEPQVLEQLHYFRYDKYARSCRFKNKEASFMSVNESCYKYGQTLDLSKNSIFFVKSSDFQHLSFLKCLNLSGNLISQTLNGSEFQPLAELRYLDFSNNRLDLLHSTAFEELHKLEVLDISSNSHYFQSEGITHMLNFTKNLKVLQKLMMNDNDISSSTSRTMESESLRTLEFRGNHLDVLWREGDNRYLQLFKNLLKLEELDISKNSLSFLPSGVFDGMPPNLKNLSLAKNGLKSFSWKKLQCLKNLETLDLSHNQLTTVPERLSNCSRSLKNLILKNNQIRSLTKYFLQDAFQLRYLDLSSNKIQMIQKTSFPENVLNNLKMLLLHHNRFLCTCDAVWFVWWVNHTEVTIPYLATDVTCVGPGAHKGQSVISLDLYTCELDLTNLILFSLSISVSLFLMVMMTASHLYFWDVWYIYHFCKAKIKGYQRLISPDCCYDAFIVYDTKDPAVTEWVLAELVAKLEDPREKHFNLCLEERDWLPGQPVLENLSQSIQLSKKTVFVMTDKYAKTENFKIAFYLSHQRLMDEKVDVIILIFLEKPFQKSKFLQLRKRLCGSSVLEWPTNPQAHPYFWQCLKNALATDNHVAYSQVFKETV
The experiment is described as follows: TLR7 inhibition reporter assay (HEK-Blue SEAP reporter, gardiquimod stimulation). The settings on record: HEK-Blue cells overexpressing human TLR7, SEAP reporter, gardiquimod 7.5 μM, 22 hour incubation. The gist of the method:
(§1)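 Compound treatment: 30 min, RT, 0.05 nM–50 μM final. Agonist: TLR7 gardiquimod 7.5 μM; TLR8 R848 15.9 μM; TLR9 ODN2006 5 nM. Incubation 22 h, 37 °C, 5% CO2. Readout SEAP, HEK-Blue Detection.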

The target of the next experiment is T2, human TLR8 (Homo sapiens, UniProt Q9NR97).
T2 construct: host or cells: HEK-Blue cells
T2 sequence (Q9NR97 27-1041): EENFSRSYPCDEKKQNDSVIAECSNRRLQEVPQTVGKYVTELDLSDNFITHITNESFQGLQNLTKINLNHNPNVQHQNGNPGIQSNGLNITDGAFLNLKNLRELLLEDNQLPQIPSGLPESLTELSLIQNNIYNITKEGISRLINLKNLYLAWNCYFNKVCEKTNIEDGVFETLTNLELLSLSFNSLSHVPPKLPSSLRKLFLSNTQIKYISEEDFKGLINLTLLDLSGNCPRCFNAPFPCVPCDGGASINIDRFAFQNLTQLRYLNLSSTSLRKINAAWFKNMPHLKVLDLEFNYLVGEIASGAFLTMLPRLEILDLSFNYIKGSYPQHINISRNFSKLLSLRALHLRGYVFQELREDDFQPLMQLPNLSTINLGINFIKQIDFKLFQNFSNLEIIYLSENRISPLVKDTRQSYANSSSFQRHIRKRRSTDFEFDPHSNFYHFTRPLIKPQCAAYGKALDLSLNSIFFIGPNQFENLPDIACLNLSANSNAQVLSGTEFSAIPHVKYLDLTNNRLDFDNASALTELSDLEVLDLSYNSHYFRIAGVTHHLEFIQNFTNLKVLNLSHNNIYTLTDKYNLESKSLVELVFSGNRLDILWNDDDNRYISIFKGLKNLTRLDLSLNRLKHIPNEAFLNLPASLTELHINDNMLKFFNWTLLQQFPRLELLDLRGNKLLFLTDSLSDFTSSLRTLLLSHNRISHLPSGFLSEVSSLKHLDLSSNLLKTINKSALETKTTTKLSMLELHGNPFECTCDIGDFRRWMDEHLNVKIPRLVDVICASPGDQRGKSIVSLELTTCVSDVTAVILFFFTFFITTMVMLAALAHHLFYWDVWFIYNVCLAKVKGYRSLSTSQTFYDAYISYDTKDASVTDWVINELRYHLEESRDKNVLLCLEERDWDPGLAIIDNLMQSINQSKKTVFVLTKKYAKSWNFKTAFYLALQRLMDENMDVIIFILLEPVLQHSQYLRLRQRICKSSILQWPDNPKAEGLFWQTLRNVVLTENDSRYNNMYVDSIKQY
Kind of experiment: TLR8 inhibition reporter assay (HEK-Blue SEAP reporter, R848 stimulation). Conditions: HEK-Blue cells overexpressing human TLR8, SEAP reporter, R848 15.9 μM, 22 hour incubation. The gist of the method:
as §1
A general note: In a reporter assay the amount or activity of a reporter protein is the signal.

Another experiment concerns the target T3, human TLR9 (Homo sapiens, UniProt Q9NR96).
T3 construct: host or cells: HEK-Blue cells
T3 sequence (Q9NR96 26-1032): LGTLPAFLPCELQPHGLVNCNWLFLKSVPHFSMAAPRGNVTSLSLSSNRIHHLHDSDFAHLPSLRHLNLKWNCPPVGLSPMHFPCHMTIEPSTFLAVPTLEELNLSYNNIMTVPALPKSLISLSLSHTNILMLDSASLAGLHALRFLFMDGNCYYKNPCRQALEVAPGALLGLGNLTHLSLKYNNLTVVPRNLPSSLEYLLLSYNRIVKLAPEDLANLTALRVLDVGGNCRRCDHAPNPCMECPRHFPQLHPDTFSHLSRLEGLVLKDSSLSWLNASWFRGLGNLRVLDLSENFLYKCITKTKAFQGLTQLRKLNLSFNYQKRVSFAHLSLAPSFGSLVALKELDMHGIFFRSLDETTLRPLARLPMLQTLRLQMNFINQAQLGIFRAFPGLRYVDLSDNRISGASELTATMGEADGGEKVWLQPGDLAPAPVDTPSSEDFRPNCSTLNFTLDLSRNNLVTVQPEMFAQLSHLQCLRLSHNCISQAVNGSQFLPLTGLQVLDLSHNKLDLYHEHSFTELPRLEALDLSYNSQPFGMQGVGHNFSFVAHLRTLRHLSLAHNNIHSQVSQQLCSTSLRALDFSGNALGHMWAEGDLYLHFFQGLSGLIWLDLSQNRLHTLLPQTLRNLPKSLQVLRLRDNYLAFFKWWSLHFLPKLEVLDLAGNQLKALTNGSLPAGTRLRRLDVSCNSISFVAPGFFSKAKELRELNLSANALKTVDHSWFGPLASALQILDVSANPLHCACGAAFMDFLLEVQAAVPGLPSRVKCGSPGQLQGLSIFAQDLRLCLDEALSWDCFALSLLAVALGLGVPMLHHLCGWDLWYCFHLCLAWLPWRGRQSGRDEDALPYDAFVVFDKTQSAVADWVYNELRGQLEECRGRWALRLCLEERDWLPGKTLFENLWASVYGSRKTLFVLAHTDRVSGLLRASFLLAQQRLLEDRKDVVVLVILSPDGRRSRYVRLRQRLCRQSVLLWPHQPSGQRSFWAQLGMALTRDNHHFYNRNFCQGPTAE
The experiment is described as follows: TLR9 inhibition reporter assay (HEK-Blue SEAP reporter, ODN2006 stimulation). Conditions: HEK-Blue cells overexpressing human TLR9, SEAP reporter, ODN2006 5 nM, 22 hour incubation. The gist of the method: as §1

In general, IC50 refers to the concentration at which inhibition is half-maximal. Higher therefore signals weaker potency in that assay. For the compound `Cc1cc(-c2[nH]c3ccc(C4CCN(CC(=O)N(C)C)CC4)cc3c2C(C)C)c(C)n(C)c1=O` [Example 138, 2-(4-(3-isopropyl-2-(1,2,5-trimethyl-6-oxo-1,6-dihydropyridin-3-yl)-1H-indol-5-yl)piperidin-1-yl)-N,N-dimethylacetamide], the IC50 stood at 17.5 nM against human TLR7, 5.2 nM at human TLR8 and 7610 nM against human TLR9.

Turning to `CNC(=O)CN1CCC(c2ccc3[nH]c(-c4cn(C)c(=O)c(C)c4C)c(C(C)C)c3c2)CC1` [Example 135, 2-(4-(3-isopropyl-2-(1,4,5-trimethyl-6-oxo-1,6-dihydropyridin-3-yl)-1H-indol-5-yl)piperidin-1-yl)-N-methylacetamide], the half-inhibitory concentration (IC50) against human TLR7 amounted to 5.3 nM; against human TLR8, 5.6 nM; against human TLR9 it was 19000 nM.

As for `Cc1cc(-c2[nH]c3ccc(C4CCN(CC(C)(C)O)CC4)cc3c2C(C)C)cn(CC(C)C)c1=O` [Example 328, 5-(5-(1-(2-hydroxy-2-methylpropyl)piperidin-4-yl)-3-isopropyl-1H-indol-2-yl)-1-isobutyl-3-methylpyridin-2(1H)-one], the IC50 at human TLR7 was 49.1 nM; on human TLR8, 54.7 nM; on human TLR9 it was 5970 nM.

For `CC(C)c1c(-c2cc(-c3cccnc3)c(=O)n(C)c2)[nH]c2ccc(C3CCN(C(C)C)CC3)cc12` [Example 235, 5-(3-isopropyl-5-(1-isopropylpiperidin-4-yl)-1H-indol-2-yl)-1-methyl-[3,3′-bipyridin]-2(1H)-one], the figures for the IC50 against human TLR7, on human TLR8 and at human TLR9 were 11 nM, 5.2 nM and 1770 nM, respectively.

Take `CCn1cc(-c2[nH]c3ccc(C4CCN(C(=O)CN(C)C)CC4)cc3c2C(C)C)cc(C)c1=O` [Example 282, 5-(5-(1-(dimethylglycyl)piperidin-4-yl)-3-isopropyl-1H-indol-2-yl)-1-ethyl-3-methylpyridin-2(1H)-one]: the IC50 against human TLR7 came out at 5.2 nM; at human TLR8 it was 7 nM; against human TLR9, 6270 nM.

Take `Cc1cc(-c2[nH]c3ccc(C4CCN(CC(=O)N(C)C)CC4)cc3c2C(C)C)cn(CC(F)(F)F)c1=O` [Example 165, 2-(4-(3-isopropyl-2-(5-methyl-6-oxo-1-(2,2,2-trifluoroethyl)-1,6-dihydropyridin-3-yl)-1H-indol-5-yl)piperidin-1-yl)-N,N-dimethylacetamide]: the IC50 on human TLR7 amounted to 45.8 nM; at human TLR8 it was 113 nM; at human TLR9 it was 10100 nM.

Take `CC(=O)N1CCC(c2ccc3[nH]c(-c4cn(C)c(=O)c(Cl)c4C)c(C(C)C)c3c2)CC1` [Example 241, 5-(5-(1-acetylpiperidin-4-yl)-3-isopropyl-1H-indol-2-yl)-3-chloro-1,4-dimethylpyridin-2(1H)-one]: the IC50 against human TLR7 was determined as 8.3 nM; at human TLR8, 4.8 nM; against human TLR9 it was 4870 nM.

Consider `COc1cc(-c2[nH]c3ccc(C4CCN(C5COC5)CC4)cc3c2C(C)C)cn(C)c1=O` [Example 202, 5-(3-isopropyl-5-(1-(oxetan-3-yl)piperidin-4-yl)-1H-indol-2-yl)-3-methoxy-1-methylpyridin-2(1H)-one], for which the IC50 against human TLR7 is 11.3 nM; on human TLR8 it was 13.5 nM; at human TLR9, 5630 nM.

On to `COc1c(C)c(-c2[nH]c3ccc(C4CCN(CC(=O)N(C)C)CC4)cc3c2C(C)C)cn(C)c1=O` [Example 141, 2-(4-(3-isopropyl-2-(5-methoxy-1,4-dimethyl-6-oxo-1,6-dihydropyridin-3-yl)-1H-indol-5-yl)piperidin-1-yl)-N,N-dimethylacetamide], for which the IC50 on human TLR7 turned out to be 27.9 nM; on human TLR8, 37.3 nM; on human TLR9 it was 4460 nM.

With `COCc1cc(-c2[nH]c3ccc(C4CCN(C(=O)CN(C)C)CC4)cc3c2C(C)C)cn(C)c1=O` [Example 277, 5-(5-(1-(dimethylglycyl)piperidin-4-yl)-3-isopropyl-1H-indol-2-yl)-3-(methoxymethyl)-1-methylpyridin-2(1H)-one], the IC50 was determined as 9.3 nM on human TLR7, 21 nM at human TLR8 and 15600 nM at human TLR9.

For the compound `Cc1c(-c2[nH]c3ccc(C4CCN(C)CC4)cc3c2C(C)C)cn(C)c(=O)c1Cl` [Example 240, 3-chloro-5-(3-isopropyl-5-(1-methylpiperidin-4-yl)-1H-indol-2-yl)-1,4-dimethylpyridin-2(1H)-one], the 50% inhibitory concentration (IC50) on human TLR7 is 1 nM; at human TLR8 it was 3.7 nM; at human TLR9 it was 2590 nM.

`Cc1c(-c2[nH]c3ccc(C4CCN(C5CCCC5)CC4)cc3c2C(C)C)cn(C)c(=O)c1Cl` [Example 97, 3-chloro-5-(5-(1-cyclopentylpiperidin-4-yl)-3-isopropyl-1H-indol-2-yl)-1,4-dimethylpyridin-2(1H)-one]: the IC50 on human TLR7 is 5.2 nM; on human TLR8, 9.7 nM; on human TLR9 it was 2050 nM.
